The text below walks through data of PubChem BioAssay AID449764 (Southern Research Specialized Biocontainment Screening …, 2010).

The subject of the experiment is Mycobacterium tuberculosis H37Rv growth inhibition, no glycerol. The experiment in a line: Confirmatory growth inhibition assay, Mycobacterium tuberculosis H37Rv, absence of glycerol (AID 449764).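 For all read-outs here: growth read after 7 days of incubation.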 The conditions noted are these: for IC90: measured here: IC90 growth inhibition.

Each structure is given as a SMILES string.

Compound `O=C(CCN1C(=O)/C(=C/c2ccccc2)SC1=S)Nc1ccccn1` showed an IC90 of more than 100 µM.

`Oc1ccc(-[n+]2c(-c3ccccc3)cc(-c3ccccc3)cc2-c2ccccc2)cc1`: the IC50 was 14.3 µM and the IC90 is 17.2 µM.

With `CN(CCCNC(=O)c1cc2c(Cl)nc3ccccc3c2s1)Cc1ccccc1`, the IC50 was 55.7 µM and the IC90 was found to be 91.1 µM.

As for `OCCCNc1cc(-c2ccnc(Nc3cccc(Cl)c3)n2)ccn1`, the IC50 is 73.3 µM and the IC90 was 96 µM.

Consider `CCCCOc1ccc(C(=O)N/N=C/c2ccc(OCCN3CCCCC3)c(OC)c2)cc1`, for which the IC50 is 43.3 µM and the IC90 is 47.8 µM.

As to `COc1ccc(-c2csc3nc(-c4ccccc4OC)oc(=O)c23)cc1`, the IC50 is 5.44 µM and the IC90 was 22.1 µM.

As to `Cc1cc(-c2c(C)[nH]n(-c3ccccc3)c2=O)n[nH]1`, the IC50 is 39.4 µM and the IC90 was more than 100 µM.

For `Cc1cc(C)n(-c2nc(Nc3ccccc3C(F)(F)F)nc(-n3nc(C)cc3C)n2)n1`, the IC50 was 1.3 µM and the IC90 was 2.01 µM.

Turning to `Cc1ccc(C2=NN(C)c3nc4ccccc4n3C2)cc1`, the IC50 is 59.3 µM and the IC90 was more than 100 µM.

Regarding `CC1(O)CC(c2ccc(Cl)cc2)=NN1C(=O)c1ccc([N+](=O)[O-])cc1` (stereo not drawn), the IC50 is 7.79 µM and the IC90 was more than 100 µM.

With `COc1ccc(NS(=O)(=O)c2ccc3nc(COc4cccc5ccccc45)[nH]c3c2)cc1`, the IC50 was 62.3 µM and the IC90 is more than 100 µM.

For `Cc1nn(-c2ccccc2)c(Cl)c1C(=O)Nc1nnc(C2CCCCC2)s1`, the IC90 was more than 50 µM.

Regarding `CCN(CC)CCOC(=O)c1ccc(N/C=C(/C#N)c2nc(-c3ccc4c(c3)OCO4)cs2)cc1`, the IC50 was 62.2 µM and the IC90 was more than 100 µM.

For the compound `COc1ccc(OCC(=O)Nc2c(C(=O)N(CCN(C)C)Cc3ccco3)oc3ccccc23)cc1`, the IC50 was 41.8 µM and the IC90 worked out at 45.9 µM.

As to `CCOC(=O)CSc1nnc(SCCN2C(=O)c3ccccc3C2=O)s1`, the IC50 was 8.73 µM and the IC90 came to 22.4 µM.

Take `Cc1cccc(NC(=O)c2nc[nH]c2C(=O)N[C@H](C)c2ccccc2)c1`: the IC50 was 10.2 µM and the IC90 was more than 100 µM.

As for `CCOc1ccc(C2c3[nH]c4ccccc4c3C[C@H]3C(=O)N(C4CCN(Cc5ccccc5)CC4)CC(=O)N23)cc1OC` (stereo partly drawn), the IC50 is 23.7 µM and the IC90 is more than 100 µM.

For `Cc1cc(=O)n2cccc(O)c2n1`, the IC50 is 11.8 µM and the IC90 is 21.5 µM.

For `CCCCCCc1cc2cc(C(=O)NCc3ccccc3)c(=N)oc2cc1O`, the IC50 was 5.67 µM and the IC90 came to 6.45 µM.

In the case of `CCN=c1scc(-c2ccco2)n1/N=C/c1ccc(OC)c(O)c1`, the IC50 is 23.2 µM and the IC90 worked out at 35.1 µM.

In the case of `COc1ccc(N=c2cc(-c3ccc(O)cc3)oc3ccccc23)cc1`, the IC50 was 23.3 µM and the IC90 is 26.5 µM.

In the case of `CN1/C(=C/C(=O)c2nc(S(C)(=O)=O)ncc2Cl)C(C)(C)c2ccccc21`, the IC50 was 6.77 µM and the IC90 is 13.1 µM.

For `CC(=O)n1cc(N(C(=O)CCl)c2ccc(Cl)cc2)c2ccccc21`, the IC50 is 3.7 µM and the IC90 worked out at 6.76 µM.

Turning to `Cc1ccc2[nH]c(C)c(CCNC(=O)c3cc4cc([N+](=O)[O-])ccc4oc3=O)c2c1`, the concentration for half-maximal inhibition (IC50) is 11.2 µM and the IC90 turned out to be 17.8 µM.

With `CC(C)Cc1nc2oc3c(N4CCN(CCO)CC4)ncnc3c2c2c1CCCC2`, the IC50 was 18.3 µM and the IC90 was 24.9 µM.

In the case of `Cc1ccc(NS(=O)(=O)c2ccc(NC(=O)CN(c3cc([N+](=O)[O-])ccc3C)S(C)(=O)=O)cc2)c(C)c1`, the IC50 was 33.1 µM and the IC90 was more than 100 µM.

As to `CCCCC(CC)CN=C(N)NC(N)=NCCCCCCN=C(N)NC(N)=NCC(CC)CCCC` (stereo not drawn), the IC50 was 5.37 µM and the IC90 turned out to be 5.97 µM.

Regarding `Cc1cc(Nc2cc(Cl)nc(Sc3ccc(NC(=O)C4CC4)cc3)n2)n[nH]1`, the IC50 was 43.2 µM and the IC90 worked out at 59.2 µM.

Turning to `Cc1ccc(Nc2nc(CSc3nnc(-c4cccs4)o3)cs2)cc1`, the IC50 is 43.3 µM and the IC90 is more than 100 µM.

With `CN(C)CCCN(C(=O)c1cc(-c2cccs2)nc2ccccc12)c1nc2ccc(F)cc2s1`, the IC50 was 34.9 µM and the concentration for an effect of 90% (IC90) worked out at 54.3 µM.

Take `CN(CC(=O)Nc1ccccc1Br)C(=O)c1cccnc1Nc1cccc(C(F)(F)F)c1`: the IC50 is 35 µM and the IC90 came to 48.7 µM.

`Cc1cc(N/N=C/c2ccccc2[N+](=O)[O-])nc(-n2nc(C)cc2C)n1`: the 50% inhibitory concentration (IC50) is 3.42 µM and the IC90 is 5.14 µM.

In the case of `O=C1C(Br)=Cc2cccc3cccc1c23`, the IC50 was less than 0.2 µM and the IC90 was less than 0.2 µM.

In the case of `Nc1c(N(CCC2=CCCCC2)C(=O)c2ccc([N+](=O)[O-])o2)c(=O)[nH]c(=O)n1Cc1ccccc1`, the IC50 is 27.9 µM and the IC90 stood at 48.2 µM.

On to `CCC(=O)Oc1ccc(C(=O)Nc2ccc3c(c2)C(=O)N(C2CCCCC2)C3=O)cc1`, for which the IC50 was 24.1 µM and the IC90 worked out at 28.3 µM.

For the compound `COCCCN=C1NN=C(c2cc(C)n(Cc3ccco3)c2C)CS1`, the IC50 was 70.7 µM and the IC90 was 92.2 µM.

For the compound `CCNc1nc(NCC)nc(N/N=C/c2ccc([N+](=O)[O-])o2)n1`, the IC50 was 1.3 µM and the IC90 is 1.7 µM.

For the compound `CN(C)CCOc1ccc(-c2c(-c3ccsc3)sc3ccccc23)cc1`, the IC50 is 15.4 µM and the IC90 was found to be 21 µM.

For the compound `CCOc1ccc(-c2[nH]ncc2-c2ccc(Cl)cc2)c(O)c1`, the half-inhibitory concentration (IC50) is 44.8 µM and the IC90 was determined as 72.3 µM.

With `CCOC(=O)COc1ccc(S(=O)(=O)NCCC2=CCCCC2)cc1`, the IC50 is 22.7 µM and the IC90 stood at 25.9 µM.

Consider `Cc1ccccc1N1CCN(c2ncnc3c2cnn3Cc2ccc(Cl)cc2)CC1`, for which the IC50 was 56.4 µM and the IC90 is more than 100 µM.

Turning to `CCC1C(c2ccccc2)N(C)C(c2ccccc2)CC1(O)c1ccccc1` (stereo not drawn), the IC50 was 23.9 µM and the IC90 turned out to be 27.6 µM.

As for `Cc1ccc2nc(=O)c(NNc3ccccc3)cnc2c1`, the IC50 is 35.3 µM and the IC90 was more than 100 µM.

On to `CC1(c2ccc(OC(F)F)cc2)NC(=O)N(CC(=O)c2ccc3c(c2)OCO3)C1=O` (stereo not drawn), for which the IC50 was 37.2 µM and the IC90 was determined as 70.8 µM.

For `CCCCCCCCNC(=O)CCNC(=O)c1ccc(C(C)(C)C)cc1`, the IC50 is 34.3 µM and the IC90 was determined as 41.9 µM.

With `CCOC(=O)CSc1ccc(C(=O)Nc2ccc(OC)cc2)cn1`, the IC50 was 0.46 µM and the IC90 is more than 100 µM.

Consider `Cc1c(C(=O)Nc2nc3ccccc3[nH]2)oc2c(Cl)cccc12`, for which the IC50 was 80.4 µM and the IC90 is more than 100 µM.

On to `C/C(=N\NC(=O)c1nnn(-c2nonc2N)c1CN(C)c1ccccc1)c1ccccn1`, for which the IC50 is 11.9 µM and the IC90 stood at 13.6 µM.

On to `O=C(OCc1ccccc1F)c1cnc(Cl)c(Cl)c1`, for which the IC50 is 22 µM and the IC90 was found to be 55 µM.

As for `CCc1cc(/C(Cc2ccccn2)=N\Nc2ccccc2)c(O)cc1O`, the IC50 is 85.7 µM and the IC90 amounted to 94.6 µM.

With `COc1ccc(COC(=O)CCNC(=O)c2ccc(Cl)cc2)cc1`, the IC50 was 71.1 µM and the IC90 is more than 100 µM.

As to `c1ccc(-c2ccc(C(c3ccccc3)n3ccnc3)cc2)cc1` (stereo not drawn), the IC50 was 23.2 µM and the IC90 came out at 26.4 µM.

In the case of `CCc1ccc(/C(C)=N/Nc2cc(Cl)nc(C)n2)cc1`, the IC50 is 34.1 µM and the IC90 was 59.5 µM.

Take `COC(=O)C(C)Oc1ccc(-c2nccc(-c3ccccn3)n2)cc1` (stereo not drawn): the half-maximal inhibitory concentration (IC50) is 3.91 µM and the IC90 is 6.95 µM.

As to `Cc1ccc(N(CCC#N)C(=O)CCl)cc1C`, the IC50 was 5.11 µM and the IC90 turned out to be 8.42 µM.

As to `CC(C)NC(=O)c1sc(=S)n2c1[nH]c(=O)c1ccc(C(=O)NCCc3ccc(Cl)cc3)cc12`, the IC50 is 0.73 µM and the 90% effect concentration (IC90) was 0.83 µM.

Take `CC(C)(C)OC(=O)NCCCCCc1nnc(SCc2ccc(F)cc2)o1`: the IC50 was 75 µM and the IC90 is more than 100 µM.

With `FC(F)(Cl)c1nnc2ccc(Cl)nn12`, the IC50 is 0.73 µM and the IC90 was 0.8 µM.

Turning to `Clc1ccc(SCc2cc(N3CCOCC3)nc(-c3ccccn3)n2)cc1`, the IC50 was 6.68 µM and the IC90 stood at 11.6 µM.

For `C/C(=N\Nc1ccc([N+](=O)[O-])cc1)c1cccc(N)c1`, the IC50 was 61.2 µM and the IC90 was found to be 88.9 µM.

With `O=C(NCCC1=CCCCC1)NC12CC3CC(CC(C3)C1)C2`, the IC50 is less than 0.2 µM and the IC90 came to 1.58 µM.

On to `COc1ccc(C2=NC(=O)/C(=C\c3cc(OC)c(OC)c(OC)c3)O2)cc1`, for which the IC50 was 11.1 µM and the IC90 was 16.2 µM.

Consider `C=CCNc1oc(-c2ccc(-c3ccccc3)cc2)nc1C#N`, for which the IC50 was 16.1 µM and the IC90 was found to be 19.6 µM.

With `N#C/C(=N/Nc1ccc(OC(F)(F)F)cc1)C(N)=S`, the IC50 was 1.19 µM and the IC90 was 1.74 µM.

Regarding `COc1ccc(C[C@H]2CN3C(=NC[C@H]3Cc3ccccc3)N2CCNC(=O)CCC2CCCCC2)cc1`, the IC50 is 22.4 µM and the IC90 amounted to 24.3 µM.

With `COC(=O)CSc1[nH]c2ccc(Br)cc2c1[N+](=O)[O-]`, the IC50 is 15.1 µM and the IC90 was found to be 25 µM.

With `CNC(CC(C)C)C(=O)NC1C(=O)NC(CC(N)=O)C(=O)NC2C(=O)NC3C(=O)NC(C(=O)NC(C(=O)O)c4cc(O)cc(O)c4-c4cc3ccc4O)C(O)c3ccc(c(Cl)c3)Oc3cc2cc(c3OC2OC(CO)C(O)C(O)C2OC2C[C@](C)(N)C(O)C(C)O2)Oc2ccc(cc2Cl)C1O` (stereo partly drawn), the IC50 is 4.52 µM and the concentration for an effect of 90% (IC90) turned out to be 16.9 µM.

Regarding `CNc1ccc2oc(C[C@H]3O[C@@]4(CC[C@H]3C)O[C@H]([C@H](C)C(=O)c3ccc[nH]3)[C@H](C)C[C@H]4C)nc2c1C(=O)O`, the IC50 was 2.82 µM and the IC90 turned out to be 3.18 µM.

Take `O=c1c(C=NCCN2CCNCC2)c(O)n(C2CCCCC2)c(=O)n1C1CCCCC1`: the half-maximal inhibitory concentration (IC50) was 28.4 µM and the IC90 was 32.5 µM.

With `CC(c1ccccc1)N1CCN(C(=O)CCl)CC1` (stereo not drawn), the IC50 is 2.75 µM and the IC90 came out at 4.33 µM.

As usually defined, the IC90 is the point of the concentration-response curve where the effect stands at 90%. By IC50 is commonly meant the concentration that inhibits the measured activity by half.
